PMC9221509, “Discovery of a Novel Antimicrobial Peptide, Temporin-PKE, from the Skin Secretion of Pelophylax kl. esculentus, and Evaluation of Its Structure-Activity Relationships” (Biomolecules, 2022)
Where two headings read alike, the source gives them in different places. Non-standard residues stand in square brackets, D forms with d. Residues, ends and D or L forms follow the SMILES beside them. No end group written: not given here.

Legend:
[1] = test system: K. pneumoniae (ATCC 43816); experiment: microbe, parasite or virus in culture; assay type: cell-based, Klebsiella pneumoniae; conditions: for MBC: ATCC 43816, 18 h; for MIC: ATCC 43816, 24 h
Experimental: (§1) The antimicrobial activities of peptides were evaluated against the Gram-positive bacteria, S. aureus (ATCC 6538), methicillin-resistant Staphylococcus aureus (MRSA) (NCTC 12493), Enterococcus faecalis (E. faecalis) (NCTC 12697); the Gram-negative bacteria, E. coli (ATCC CRM 8739), Klebsiella pneumoniae (K. pneumoniae) (ATCC 43816), Pseudomonas aeruginosa (P. aeruginosa) (ATCC CRM 9027); and the yeast, Candida albicans (C. albicans) (ATCC CRM 10231). Clinical isolates of MRSA (B042 V2E1 A), E. coli (ATCC BAA-2340), K. pneumoniae (ATCC BAA-1705), and P. aeruginosa (B004 V2S2 B) were also used to determine their antimicrobial activities. The suspension of microorganisms in the logarithmic growth phase with a specific final density (Gram-negative and Gram-positive bacteria: 5 × 10^5 CFU/mL; yeast: 1 × 10^6 CFU/mL) was incubated with different peptide concentrations from 1 µM to 512 µM at 37 °C for 24 h. PBS was used as the negative control, and norfloxacin and amphotericin B were selected as the positive control for bacteria and yeast, respectively. Since the Norfloxacin had weak activities against P. aeruginosa (B004 V2S2 B) and K. pneumoniae (ATCC BAA 1705), gentamicin was used as the positive control for these two bacterial strains. The absorbance of each well was obtained using a microplate reader (EL808, Biolise BioTek, Winooski, VT, USA) set at 550 nm wavelength. The MIC value was the lowest concentration of a peptide that inhibits visible bacterial growth. Once the MIC values were determined, an aliquot from the bacterial culture exposed to the peptide at or above its MIC value was inoculated on a Mueller Hinton agar (MHA) and was incubated at 37 for 18 h. The MBC value was the lowest concentration of a peptide that kills 99.9% of bacteria.

[2] = test system: K. pneumoniae (ATCC BAA-1705); experiment: microbe, parasite or virus in culture; assay type: cell-based, Klebsiella pneumoniae; conditions: for MBC: ATCC BAA-1705, 18 h; for MIC: ATCC BAA-1705, 24 h
Experimental: as §1

[3] = test system: P. aeruginosa (ATCC CRM 9027); experiment: microbe, parasite or virus in culture; assay type: cell-based, Pseudomonas aeruginosa; conditions: for MBC: ATCC CRM 9027, 18 h; for MIC: ATCC CRM 9027, 24 h
Experimental: as §1

[4] = test system: P. aeruginosa (B004 V2S2 B); experiment: microbe, parasite or virus in culture; assay type: cell-based, Pseudomonas aeruginosa; conditions: B004 V2S2 B; for MBC: 18 h; for MIC: 24 h
Experimental: as §1

[5] = test system: P. aeruginosa (ATCC CRM 9027) biofilm; assay type: cell-based, Pseudomonas aeruginosa; conditions: ATCC CRM 9027, 24 h
Experimental: The anti-biofilm activities of the peptides against S. aureus (ATCC 6538), MRSA (NCTC 12493), E. faecalis (NCTC 12697), E. coli (ATCC CRM 8739), K. pneumoniae (ATCC 43816), and P. aeruginosa (ATCC CRM 9027), were evaluated. For the MBIC assay, 99 µL of bacterial suspension (5 × 10^5 CFU/mL) was mixed with 1 µL of serial dilutions (from 100 µM to 51,200 µM) of temporin-PKE and its analogues in a 96-well plate, and the plate was incubated in a moist shaking incubator at a speed of 200 rpm at 37 °C for 24 h. For the MBEC assay, 100 µL of bacterial suspension (5 × 10^5 CFU/mL) in each well was seeded in a new 96-well plate, and the plate was put into the same shaking incubator for 24 h incubation to allow biofilm formation on the well. After biofilm formation, the biofilm in the plate was washed with PBS twice. The PBS was aspirated between washes to remove planktonic bacterial cells. The washed biofilm in each well was treated with 100 µL of serial dilutions (from 1 µM to 512 µM) of the test peptides. Then, the plate was incubated in the same shaking incubator for another 24 h. After being washed by PBS twice and fixed with methanol, the biofilm in each well was incubated with 100 µL of 0.1% crystal violet for 30 min, and the stained biofilm was dissolved in 100 µL of glacial acidic acid after drying. The solutions were transferred to a new microplate, and the absorbance of each well was measured using a microplate reader (EL808, Biolise BioTek, Winooski, VT, USA) set to 595 nm wavelength. The MBIC was the minimum concentration of the peptide showing no biofilm formation. The MBEC is the lowest concentration of the peptide capable of eradicating the mature biofilms, which had no biofilm in the well.

HCT-116 cells = assay type: cell-based; conditions: 24 h
Experimental: (§2) The cytotoxicity of the peptides against the human epidermal keratinocyte line, HaCaT, was tested using the MTT cell viability assay as described in a previous study. The 100 µL of the cell suspension in a complete DMEM medium with a density of 10,000 cells/mL was seeded in a 96-well plate and incubated overnight at 37 °C in a humidified 5% CO2 atmosphere. After 4 h of starvation in a serum-free medium, 100 μL of serial dilutions (from 10^−9 M to 10^−4 M) of temporin-PKE and its analogues was added to each well, and the plate was incubated for 24 h. The serum-free medium and 0.1% Triton X-100 were used as the negative and positive control, respectively. Then, MTT solution, at a volume of 10 μL, was added to each well, and the plate was incubated for 2 h. After this, the medium was replaced by 100 μL of DMSO, and plates were put in the shaking incubator for 15 min. The absorbance of each well was measured using a microplate reader (EL808, Biolise BioTek, Winooski, VT, USA) set to a wavelength of 570 nm. The equation used to calculate the viability of the cells is shown below: Cell viability (%)=A−Ab/An−Ab×100% where A represents the absorbance of each treatment group, Ab represents the average absorbance of the wells in the blank control group (cells not exposed to the test peptide and MTT), and An represents the average absorbance of the wells in the negative control group (cells not exposed to the test peptide).
(§3) The anti-proliferative activities of peptides against HCT-116, NCI-H838 (H838), U251MG, PC-3, and NCI-H157 cell lines were determined by MTT cell viability assay, and the details were described in Section 2.9.

NCI-H157 cells = assay type: cell-based; conditions: 24 h
Experimental: as §2, §3

NCI-H838 (H838) cells = assay type: cell-based; conditions: 24 h
Experimental: as §2, §3

PC-3 cells = assay type: cell-based; conditions: 24 h
Experimental: as §2, §3

U251MG cells = assay type: cell-based; conditions: 24 h
Experimental: as §2, §3

| Compound | MBC ([1]; read-out: MBC) [µM] | MIC ([1]; read-out: MIC) [µM] | MBC ([2]; read-out: MBC) [µM] | MIC ([2]; read-out: MIC) [µM] | MBC ([3]; read-out: MBC) [µM] | MIC ([3]; read-out: MIC) [µM] | MBC ([4]; read-out: MBC) [µM] | MIC ([4]; read-out: MIC) [µM] | MBIC [5] [µM] | IC50 (HCT-116 cells) [µM] | IC50 (NCI-H157 cells) [µM] | IC50 (NCI-H838 (H838) cells) [µM] | IC50 (PC-3 cells) [µM] | IC50 (U251MG cells) [µM] | MBC [2] [µM] | MIC [2] [µM] | MBC [3] [µM] | MIC [3] [µM] | MBC [4] [µM] | MIC [4] [µM] | other results |
| --- | --- | --- | --- | --- | --- | --- | --- | --- | --- | --- | --- | --- | --- | --- | --- | --- | --- | --- | --- | --- | --- |
| FLPLIIGALSSLLPKIF-NH2 [Temporin-PKE] | >512 | >512 | >512 | >512 | >512 | >512 | >512 | >512 | >512 | 21.3 | 17.4 | 16.4 | 7.29 | 23.2 | – | – | – | – | – | – | – |
| CC[C@@H](C)[C@@H](NC(=O)[C@H](CCCCN)NC(=O)[C@@H]1CCCN1C(=O)[C@H](CC(C)C)NC(=O)[C@H](CC(C)C)NC(=O)[C@H](CO)NC(=O)[C@H](CO)NC(=O)[C@H](CC(C)C)NC(=O)[C@H](C)NC(=O)CNC(=O)[C@H](NC(=O)[C@H](NC(=O)[C@H](CC(C)C)NC(=O)[C@@H]1CCCN1C(=O)[C@H](CC(C)C)NC(=O)[C@@H](N)Cc1ccccc1)[C@H](C)CC)[C@H](C)CC)C(=O)N[C@@H](Cc1ccccc1)C(N)=O [Temporin-PKE-3i] (H-FLPL[dI][dI]GALSSLLPK[dI]F-NH2) | >512 | >512 | >512 | >512 | >512 | >512 | >512 | >512 | >512 | 72.1 | 71.2 | 193 | 167 | 121 | – | – | – | – | – | – | – |
| FLPKIIGKLSSKLPKIF-NH2 [Temporin-PKE-4K] | – | – | – | – | – | – | – | – | 128 | 99.4 | 27.8 | 35.3 | 49.5 | 85.5 | 32 | 32 | 64 | 64 | 32 | 32 | MBC [1]: 16 µM; MIC [1]: 16 µM |
| FLPLIIGKLSSLLPKIF-NH2 [Temporin-PKE-2K] | 32 | 16 | – | – | 256 | 128 | – | – | >512 | 2.84 | 2.78 | 3.07 | 2.64 | 2.49 | 16 | 16 | – | – | 32 | 32 | – |
| FLPLIIGALSSKLPKIF-NH2 [Temporin-PKE-K12] | 64 | 32 | – | – | – | – | – | – | >512 | 22.1 | 24 | 22.7 | 27.3 | 25.8 | 64 | 64 | 256 | 256 | 64 | 64 | – |
| FLPKIIGKLSSLLPKIF-NH2 [Temporin-PKE-3K] | – | 4 | – | – | – | – | – | – | 64 | 0.38 | 3.29 | 0.51 | 3.01 | 2.83 | 8 | 8 | 16 | 16 | 8 | 8 | MBC [1]: 4/4 μM |
| CC[C@@H](C)[C@@H](NC(=O)[C@H](CCCCN)NC(=O)[C@@H]1CCCN1C(=O)[C@H](CC(C)C)NC(=O)[C@H](CC(C)C)NC(=O)[C@H](CO)NC(=O)[C@H](CO)NC(=O)[C@H](CC(C)C)NC(=O)[C@H](C)NC(=O)CNC(=O)[C@@H](NC(=O)[C@@H](NC(=O)[C@H](CC(C)C)NC(=O)[C@@H]1CCCN1C(=O)[C@H](CC(C)C)NC(=O)[C@@H](N)Cc1ccccc1)[C@@H](C)CC)[C@@H](C)CC)C(=O)N[C@@H](Cc1ccccc1)C(N)=O [Temporin-PKE-i] (H-FLPLIIGALSSLLPK[dI]F-NH2) | >512 | >512 | >512 | >512 | >512 | >512 | >512 | >512 | >512 | 3.07 | 2.94 | 5.28 | 3.35 | 4.46 | – | – | – | – | – | – | – |
